± gives the expanded uncertainty stated by the source.
Legend:
[1] = Liquid; for mass density: 298.15 K, 101.33 kPa, Vibrating tube method; for vapor or sublimation pressure: Ebulliometric method (Recirculating still)
[2] = refractive index (Na D-line) (dimensionless); conditions: 298.15 K; 101.33 kPa; Liquid; Standard Abbe refractometry

vapor or sublimation pressure ([1]; 393.4 K) | Compound | mass density [1] | vapor or sublimation pressure ([1]; 347.2 K) | refractive index [2] | vapor or sublimation pressure ([1]; 342.8 K) | vapor or sublimation pressure ([1]; 342 K)
– | Cc1ccccc1C [1,2-dimethylbenzene] | 875.5 ± 1 kg/m3 | 10 ± 0.15 kPa | 1.5031 ± 0.0007 | – | –
– | Cc1cccc(C)c1 [1,3-dimethylbenzene] | 859.95 ± 1 kg/m3 | – | 1.4946 ± 0.0007 | 10 ± 0.15 kPa | –
– | Cc1ccc(C)cc1 [1,4-dimethylbenzene] | 856.71 ± 1 kg/m3 | – | 1.4931 ± 0.0007 | – | 10 ± 0.15 kPa
10 ± 0.15 kPa | CCCCCCCCCCC [undecane] | 736.85 ± 1 kg/m3 | – | 1.4152 ± 0.0007 | – | –

— the NIST ThermoML archive (doi:10.1016/j.fluid.2013.10.012)
